Results as given in ChEMBL document CHEMBL1201862, “PubChem BioAssay data set” (2004).
The source made the active and inactive calls.

Experiments:
Beta-galactosidase [1] = molecular target: T1, Beta-galactosidase (Escherichia coli, UniProt Q8VNN2); assay: PubChem AID 485352; type: functional
[2] = molecular target: T2, Type-1 angiotensin II receptor (Homo sapiens, UniProt P30556); assay: AT1 receptor antagonists, dose response, selectivity assay for APJ receptor antagonist project, cell-based, uHTS hits (AID 463214); type: functional;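 note: antagonist potency against angiotensin II stimulated AT1 response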
T2 sequence (P30556 whole entry): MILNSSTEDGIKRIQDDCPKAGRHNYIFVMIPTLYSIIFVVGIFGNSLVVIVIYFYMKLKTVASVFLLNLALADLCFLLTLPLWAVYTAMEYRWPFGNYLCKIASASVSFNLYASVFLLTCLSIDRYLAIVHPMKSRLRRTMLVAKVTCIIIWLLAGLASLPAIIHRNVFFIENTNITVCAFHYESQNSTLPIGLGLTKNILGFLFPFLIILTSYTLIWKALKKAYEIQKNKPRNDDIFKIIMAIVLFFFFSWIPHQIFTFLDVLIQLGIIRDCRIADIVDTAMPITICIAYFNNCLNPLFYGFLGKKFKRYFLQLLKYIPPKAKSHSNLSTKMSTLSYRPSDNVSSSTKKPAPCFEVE

Cytochrome P450 3A4 = Cytochrome P450 3A4 (Homo sapiens, UniProt P08684); conditions: Potency;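 note: confirmatory qHTS run detecting inhibitors and substrates of CYP3A4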
[3] = molecular target: Voltage-gated inwardly rectifying potassium channel KCNH2 (Homo sapiens, UniProt Q12809); conditions: Potency;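 note: confirmatory quantitative high-throughput screen measuring inhibition of hERG channel activity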
[4] = NIH-3T3 fibroblast cytotoxicity, dose response, cytotoxicity control, cell-based, fluorescence, Alamar Blue, secondary assay (AID 2327); type: functional;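 note: NIH-3T3 mouse fibroblasts cultured with fluconazole at 8 µg/mL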
[5] = C. albicans growth with fluconazole, confirmation, fluorescence, retest (AID 2467); type: functional, cell-based
[6] = inhibitors of intracellular T. cruzi replication, confirmation, NIH3T3 host cells, beta-gal luminescence (AID 2044); type: functional, cell-based;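 note: intracellular parasites grown in NIH/3T3 mouse fibroblasts as host cells; luminescent beta-galactosidase reporter signal from transgenic T. cruzi replicating inside host cells; inhibitors lower the luminescence signal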
[7] = molecular target: Serine/threonine-protein phosphatase (Candida dubliniensis (strain CD36 / CBS 7987 / NCPF 3949 / NRRLY-17841) (Yeast), UniProt B9W6M3); assay: calcineurin pathway inhibitors in yeast reporter, dose response, S. cerevisiae, CDRE-lacZ, luminescence, secondary (AID 2388); type: functional, cell-based;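 note: yeast reporter cells carrying a calcineurin-responsive lacZ construct stimulated with calcium chloride; luminescent beta-galactosidase reporter signal in whole cells rather than isolated phosphatase activity; potency for inhibition where a drop in reporter signal means calcineurin blockade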
[8] = cytotoxicity toward NIH3T3 fibroblasts, dose response, counter-screen, cell-based, ATP luminescence, mouse fibroblasts (AID 2010); type: functional;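 note: cells exposed to compound for about 90 hours before reading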
[9] = cytotoxicity in HEK-293T cells, dose response, cytotoxicity control for TCR NF-kB inhibitor project, luminescence, T-cell screen hits (AID 489026); type: functional, cell-based;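 note: cells exposed to compound about 14 hours before the viability readout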
[10] = molecular target: T3, Microphthalmia-associated transcription factor (Homo sapiens, UniProt O75030); assay: TRPM1 promoter luciferase signal decrease, dose response, MITF inhibitor project, cell-based, SK-MEL-5, cherry-picked, set 3 (AID 493073); type: functional
T3 sequence (O75030 whole entry): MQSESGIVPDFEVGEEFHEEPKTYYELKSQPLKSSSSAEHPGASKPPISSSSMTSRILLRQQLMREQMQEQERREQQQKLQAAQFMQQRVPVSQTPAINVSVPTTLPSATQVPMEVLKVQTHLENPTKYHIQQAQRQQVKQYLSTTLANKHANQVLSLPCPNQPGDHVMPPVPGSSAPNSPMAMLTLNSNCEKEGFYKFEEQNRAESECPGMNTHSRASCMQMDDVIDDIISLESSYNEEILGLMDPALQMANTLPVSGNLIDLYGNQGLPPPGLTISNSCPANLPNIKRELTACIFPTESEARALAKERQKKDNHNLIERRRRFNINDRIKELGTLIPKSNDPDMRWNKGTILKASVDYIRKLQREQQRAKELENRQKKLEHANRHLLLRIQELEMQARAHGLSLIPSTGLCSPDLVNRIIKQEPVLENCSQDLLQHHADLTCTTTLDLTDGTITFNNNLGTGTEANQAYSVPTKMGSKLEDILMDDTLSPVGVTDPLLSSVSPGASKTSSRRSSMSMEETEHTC

INS1 = assay: beta cell apoptosis inhibitors, cytokine rescue, dose response, luminescence, retest (AID 449756); type: functional, cell-based; conditions: Rattus norvegicus;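 note: cell death triggered by IL-1 beta plus TNF-alpha plus IFN-gamma mixture; protective hits raise ATP signal compared with cytokine alone wells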
[11] = molecular target: ATP-dependent molecular chaperone HSP82 (Candida albicans (strain WO-1) (Yeast), UniProt C4YTQ8); assay: loss of DOC-induced GRE-beta-galactosidase reporter signal, dose response, Hsp90 inhibitor project, S. cerevisiae, luminescence (AID 2400); type: functional, cell-based;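 note: beta-galactosidase luminescence from glucocorticoid response element reporter as proxy for Hsp90 function; inhibitor potency where signal loss means Hsp90 inhibition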
[12] = molecular target: T4, COUP transcription factor 2 (Homo sapiens, UniProt P24468); assay: Luminescence-based cell-based high throughput dose response assay to identify inhibitors of COUP-TFII (NR2F2).; type: functional;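 note: HEK293 cells transiently cotransfected with COUP-TFII expression vector and reporter; luciferase reporter luminescence driven by COUP-TFII from the pX2-168 reporter plasmid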
T4 sequence (P24468 whole entry): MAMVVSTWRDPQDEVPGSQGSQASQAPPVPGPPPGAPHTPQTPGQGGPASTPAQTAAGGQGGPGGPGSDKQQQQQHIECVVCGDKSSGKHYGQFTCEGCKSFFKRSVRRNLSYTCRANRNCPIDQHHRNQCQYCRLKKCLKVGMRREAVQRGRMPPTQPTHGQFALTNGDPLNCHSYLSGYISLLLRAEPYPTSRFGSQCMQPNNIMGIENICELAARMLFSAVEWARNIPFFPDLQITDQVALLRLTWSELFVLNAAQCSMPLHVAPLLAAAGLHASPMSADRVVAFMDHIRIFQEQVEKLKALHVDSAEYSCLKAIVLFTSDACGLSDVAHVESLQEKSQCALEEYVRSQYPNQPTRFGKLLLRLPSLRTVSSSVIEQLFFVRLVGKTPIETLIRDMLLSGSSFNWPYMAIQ

[13] = molecular target: Glucose-6-phosphate 1-dehydrogenase (Homo sapiens, UniProt P11413); assay: human G6PD enzyme inhibitors, dose response, selectivity assay for P. falciparum G6PD inhibitor project, biochemical, fluorescence (AID 504792); type: functional
[14] = molecular target: T5, C-C chemokine receptor type 6 (Homo sapiens, UniProt P51684); assay: CCR6 receptor antagonists, dose response, cell-based, luminescent beta-arrestin readout (AID 504728); type: functional
T5 sequence (P51684 whole entry): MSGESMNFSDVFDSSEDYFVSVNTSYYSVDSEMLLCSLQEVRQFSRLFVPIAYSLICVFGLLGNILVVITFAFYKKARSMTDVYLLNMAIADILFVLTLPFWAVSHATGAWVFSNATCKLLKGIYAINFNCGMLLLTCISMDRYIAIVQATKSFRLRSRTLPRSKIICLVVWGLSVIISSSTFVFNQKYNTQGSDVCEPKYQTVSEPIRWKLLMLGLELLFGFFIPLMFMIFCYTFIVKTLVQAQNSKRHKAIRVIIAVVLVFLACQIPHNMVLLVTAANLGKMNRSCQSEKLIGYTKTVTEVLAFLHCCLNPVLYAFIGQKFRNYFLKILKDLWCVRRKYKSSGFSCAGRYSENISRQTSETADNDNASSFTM

Beta-galactosidase [15] = molecular target: T1, Beta-galactosidase; assay: beta-galactosidase enzyme inhibitors and activators, dose response, artefact control for CCR6 antagonist project, biochemical, E. coli enzyme, set 3 (AID 504712); type: functional
Hexokinase HKDC1 = molecular target: T6, Hexokinase HKDC1 (Homo sapiens, UniProt Q2TB90); assay: HKDC1 hexokinase inhibitors, dose response, biochemical, W721R variant (AID 504729); type: functional
T6 sequence (Q2TB90 whole entry): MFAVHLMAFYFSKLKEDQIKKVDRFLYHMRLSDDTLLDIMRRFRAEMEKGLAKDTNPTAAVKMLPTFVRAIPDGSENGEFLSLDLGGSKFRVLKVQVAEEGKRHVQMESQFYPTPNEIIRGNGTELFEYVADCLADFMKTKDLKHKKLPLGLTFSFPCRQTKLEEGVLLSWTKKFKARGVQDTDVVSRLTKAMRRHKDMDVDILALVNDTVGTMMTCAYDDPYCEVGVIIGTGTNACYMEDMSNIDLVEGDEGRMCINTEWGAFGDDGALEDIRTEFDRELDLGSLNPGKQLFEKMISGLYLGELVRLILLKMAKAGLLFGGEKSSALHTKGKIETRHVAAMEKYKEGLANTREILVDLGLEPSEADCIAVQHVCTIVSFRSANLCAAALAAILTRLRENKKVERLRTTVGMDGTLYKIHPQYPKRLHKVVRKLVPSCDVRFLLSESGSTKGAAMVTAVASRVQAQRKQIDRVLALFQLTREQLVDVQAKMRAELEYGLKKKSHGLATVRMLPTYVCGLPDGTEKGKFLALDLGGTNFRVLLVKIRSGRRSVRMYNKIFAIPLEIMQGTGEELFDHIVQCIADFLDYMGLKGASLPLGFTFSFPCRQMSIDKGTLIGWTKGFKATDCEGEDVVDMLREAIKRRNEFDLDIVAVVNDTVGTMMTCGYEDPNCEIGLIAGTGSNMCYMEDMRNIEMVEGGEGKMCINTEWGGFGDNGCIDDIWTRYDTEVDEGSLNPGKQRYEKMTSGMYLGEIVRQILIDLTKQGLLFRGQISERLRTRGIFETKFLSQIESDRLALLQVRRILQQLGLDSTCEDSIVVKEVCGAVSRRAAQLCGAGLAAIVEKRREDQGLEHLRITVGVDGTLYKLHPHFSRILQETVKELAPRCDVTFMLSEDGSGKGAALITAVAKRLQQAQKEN

Vero = Vero cell cytotoxicity, cytotoxicity control for flavivirus capping enzyme inhibitors (AID 588742); type: functional; conditions: Chlorocebus sabaeus
Genome polyprotein = Genome polyprotein (dengue virus type 2, UniProt P29990); assay: Dengue-2 NS5 methyltransferase inhibitors, primary screen, biochemical, confirmation dose response (AID 588689); type: functional
[16] = molecular target: T7, Mitochondrial peptide methionine sulfoxide reductase (Bos taurus, UniProt P54149); assay: Absorbance-based biochemical high throughput dose response assay for activators of Methionine sulfoxide reductase A (MsrA).; type: functional
T7 sequence (P54149 whole entry): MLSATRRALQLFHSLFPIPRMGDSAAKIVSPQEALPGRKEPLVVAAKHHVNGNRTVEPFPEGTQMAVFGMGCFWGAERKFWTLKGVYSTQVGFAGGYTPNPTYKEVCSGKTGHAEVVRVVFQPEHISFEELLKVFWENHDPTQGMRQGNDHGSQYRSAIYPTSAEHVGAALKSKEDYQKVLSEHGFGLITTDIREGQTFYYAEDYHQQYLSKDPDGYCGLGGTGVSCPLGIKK

[17] = Fluorescence-based cell-based high throughput dose response assay for inhibitors of the interaction of nucleotide-binding oligomerization domain containing 2 (NOD2) and the receptor-interacting serine-threonine kinase 2 (RIPK2).; type: functional; conditions: Homo sapiens
Paired box protein Pax-8 = Paired box protein Pax-8 (Homo sapiens, UniProt Q06710); assay: inhibitors of PAX8-driven TPO luciferase reporter, dose response, RMG-I cells, cherry-pick (AID 687027); type: functional, cell-based;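 note: luciferase reporter driven by Pax8 target thyroperoxidase promoter measured by SteadyGlo luminescence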
[18] = molecular target: T8, Tyrosyl-DNA phosphodiesterase 2 (Homo sapiens, UniProt O95551); assay: human TDP2 enzyme inhibitors, dose response, biochemical, epi absorbance, IC50 (AID 743297)
T8 sequence (O95551 whole entry): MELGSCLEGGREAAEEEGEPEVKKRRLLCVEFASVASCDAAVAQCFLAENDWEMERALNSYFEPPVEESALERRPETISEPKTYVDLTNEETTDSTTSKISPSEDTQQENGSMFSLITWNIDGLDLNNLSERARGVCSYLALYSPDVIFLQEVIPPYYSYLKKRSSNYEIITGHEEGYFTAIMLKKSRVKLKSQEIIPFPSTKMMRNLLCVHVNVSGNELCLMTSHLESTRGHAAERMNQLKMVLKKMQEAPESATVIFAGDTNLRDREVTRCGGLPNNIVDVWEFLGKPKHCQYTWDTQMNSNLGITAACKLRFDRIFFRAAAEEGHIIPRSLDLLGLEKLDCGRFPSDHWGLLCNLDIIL

[19] = non-specific cell cytotoxicity, dose response, cytotoxicity control for PAX8 inhibitor project, plate reader, dry powder samples (AID 743021); type: functional, cell-based
[20] = THP-1 cell cytotoxicity, dose response, cytotoxicity control for Vif-APOBEC3G degradation inhibitor project, THP-1 cells (AID 1117359); type: functional; conditions: Human immunodeficiency virus 1, THP-1

T1 sequence (Q8VNN2 whole entry): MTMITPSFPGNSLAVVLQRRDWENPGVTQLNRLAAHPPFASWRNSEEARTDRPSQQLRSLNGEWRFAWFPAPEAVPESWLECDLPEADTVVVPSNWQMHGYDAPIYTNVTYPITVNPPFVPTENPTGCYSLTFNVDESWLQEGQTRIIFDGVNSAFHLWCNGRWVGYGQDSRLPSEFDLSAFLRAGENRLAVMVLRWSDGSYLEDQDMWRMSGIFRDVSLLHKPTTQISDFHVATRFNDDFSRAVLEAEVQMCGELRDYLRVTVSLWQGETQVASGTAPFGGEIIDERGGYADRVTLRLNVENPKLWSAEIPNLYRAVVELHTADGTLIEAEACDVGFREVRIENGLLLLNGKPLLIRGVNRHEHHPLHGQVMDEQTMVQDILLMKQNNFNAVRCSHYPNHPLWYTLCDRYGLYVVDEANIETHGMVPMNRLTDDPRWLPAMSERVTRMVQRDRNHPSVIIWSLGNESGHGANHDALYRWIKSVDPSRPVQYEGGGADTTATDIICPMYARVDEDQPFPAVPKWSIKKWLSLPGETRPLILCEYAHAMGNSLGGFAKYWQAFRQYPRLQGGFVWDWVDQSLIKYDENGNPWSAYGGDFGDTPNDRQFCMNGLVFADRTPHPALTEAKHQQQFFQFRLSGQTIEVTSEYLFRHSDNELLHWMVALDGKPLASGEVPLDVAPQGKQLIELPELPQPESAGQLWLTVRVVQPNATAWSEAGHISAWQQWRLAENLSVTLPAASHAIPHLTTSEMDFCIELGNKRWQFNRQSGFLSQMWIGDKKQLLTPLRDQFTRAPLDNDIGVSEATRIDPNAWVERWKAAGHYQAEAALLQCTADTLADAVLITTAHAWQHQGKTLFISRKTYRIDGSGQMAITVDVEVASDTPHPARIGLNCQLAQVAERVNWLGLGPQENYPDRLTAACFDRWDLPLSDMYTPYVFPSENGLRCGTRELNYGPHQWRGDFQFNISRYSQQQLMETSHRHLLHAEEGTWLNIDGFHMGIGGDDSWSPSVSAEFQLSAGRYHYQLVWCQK
Sequence of Serine/threonine-protein phosphatase (B9W6M3 whole entry): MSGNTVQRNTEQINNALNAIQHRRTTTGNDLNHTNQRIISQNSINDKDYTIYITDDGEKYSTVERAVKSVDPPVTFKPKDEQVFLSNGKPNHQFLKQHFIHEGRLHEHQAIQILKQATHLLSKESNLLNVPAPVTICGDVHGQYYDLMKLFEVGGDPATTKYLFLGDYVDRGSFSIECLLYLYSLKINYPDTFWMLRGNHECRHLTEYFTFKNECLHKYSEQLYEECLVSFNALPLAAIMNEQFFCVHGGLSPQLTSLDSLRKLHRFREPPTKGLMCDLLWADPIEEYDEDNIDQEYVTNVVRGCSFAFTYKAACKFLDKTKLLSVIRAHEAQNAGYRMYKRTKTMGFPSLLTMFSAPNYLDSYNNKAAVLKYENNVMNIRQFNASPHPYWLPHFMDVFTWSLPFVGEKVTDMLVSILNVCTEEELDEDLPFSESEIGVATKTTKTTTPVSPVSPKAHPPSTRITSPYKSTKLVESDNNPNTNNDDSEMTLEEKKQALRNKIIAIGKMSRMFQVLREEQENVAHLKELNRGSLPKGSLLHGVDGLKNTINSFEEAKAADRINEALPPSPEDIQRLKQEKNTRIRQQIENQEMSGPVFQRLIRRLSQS
Sequence of Voltage-gated inwardly rectifying potassium channel KCNH2 (Q12809 whole entry): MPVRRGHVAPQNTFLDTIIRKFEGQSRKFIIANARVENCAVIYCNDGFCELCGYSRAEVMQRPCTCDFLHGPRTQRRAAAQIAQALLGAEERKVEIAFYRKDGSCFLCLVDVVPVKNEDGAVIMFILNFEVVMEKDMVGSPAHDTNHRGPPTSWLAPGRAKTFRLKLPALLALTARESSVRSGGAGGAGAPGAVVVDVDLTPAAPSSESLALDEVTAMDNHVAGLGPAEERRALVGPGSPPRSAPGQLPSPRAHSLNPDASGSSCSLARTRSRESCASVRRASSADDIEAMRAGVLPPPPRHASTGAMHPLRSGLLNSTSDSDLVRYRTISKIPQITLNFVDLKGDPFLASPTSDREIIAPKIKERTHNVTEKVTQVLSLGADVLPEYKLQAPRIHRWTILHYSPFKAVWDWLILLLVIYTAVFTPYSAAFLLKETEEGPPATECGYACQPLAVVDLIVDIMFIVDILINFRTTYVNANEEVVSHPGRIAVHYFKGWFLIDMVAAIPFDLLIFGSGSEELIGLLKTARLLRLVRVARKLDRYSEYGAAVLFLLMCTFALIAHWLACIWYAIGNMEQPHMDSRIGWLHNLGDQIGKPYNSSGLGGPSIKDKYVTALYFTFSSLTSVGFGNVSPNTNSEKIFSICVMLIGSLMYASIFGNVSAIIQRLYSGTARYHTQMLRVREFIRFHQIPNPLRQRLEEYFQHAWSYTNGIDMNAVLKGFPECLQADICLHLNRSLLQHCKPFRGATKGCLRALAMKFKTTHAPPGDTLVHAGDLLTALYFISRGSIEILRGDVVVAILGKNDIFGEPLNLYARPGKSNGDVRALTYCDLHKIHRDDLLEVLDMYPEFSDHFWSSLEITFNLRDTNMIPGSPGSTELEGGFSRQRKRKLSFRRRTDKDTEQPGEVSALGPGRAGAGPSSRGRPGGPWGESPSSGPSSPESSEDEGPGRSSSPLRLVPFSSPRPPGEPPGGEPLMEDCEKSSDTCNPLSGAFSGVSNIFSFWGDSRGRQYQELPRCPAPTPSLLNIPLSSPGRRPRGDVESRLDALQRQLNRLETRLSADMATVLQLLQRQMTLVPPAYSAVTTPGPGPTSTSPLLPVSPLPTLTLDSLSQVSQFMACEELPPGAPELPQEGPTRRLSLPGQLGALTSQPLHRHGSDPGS
Sequence of Cytochrome P450 3A4 (P08684 whole entry): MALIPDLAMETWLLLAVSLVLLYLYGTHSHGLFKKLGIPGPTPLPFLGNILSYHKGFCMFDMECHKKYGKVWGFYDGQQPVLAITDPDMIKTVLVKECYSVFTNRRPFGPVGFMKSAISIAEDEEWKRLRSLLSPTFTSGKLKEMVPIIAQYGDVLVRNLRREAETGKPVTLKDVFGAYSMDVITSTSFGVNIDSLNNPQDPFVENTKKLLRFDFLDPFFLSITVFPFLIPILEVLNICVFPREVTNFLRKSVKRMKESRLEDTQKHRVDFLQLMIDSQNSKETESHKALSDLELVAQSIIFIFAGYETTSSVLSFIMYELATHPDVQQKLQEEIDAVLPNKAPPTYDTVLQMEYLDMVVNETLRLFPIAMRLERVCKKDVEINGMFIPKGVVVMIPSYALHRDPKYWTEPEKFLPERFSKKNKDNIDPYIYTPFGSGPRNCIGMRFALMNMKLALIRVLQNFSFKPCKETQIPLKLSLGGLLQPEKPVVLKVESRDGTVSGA
Sequence of Genome polyprotein (P29990 2492-3391 limits assumed): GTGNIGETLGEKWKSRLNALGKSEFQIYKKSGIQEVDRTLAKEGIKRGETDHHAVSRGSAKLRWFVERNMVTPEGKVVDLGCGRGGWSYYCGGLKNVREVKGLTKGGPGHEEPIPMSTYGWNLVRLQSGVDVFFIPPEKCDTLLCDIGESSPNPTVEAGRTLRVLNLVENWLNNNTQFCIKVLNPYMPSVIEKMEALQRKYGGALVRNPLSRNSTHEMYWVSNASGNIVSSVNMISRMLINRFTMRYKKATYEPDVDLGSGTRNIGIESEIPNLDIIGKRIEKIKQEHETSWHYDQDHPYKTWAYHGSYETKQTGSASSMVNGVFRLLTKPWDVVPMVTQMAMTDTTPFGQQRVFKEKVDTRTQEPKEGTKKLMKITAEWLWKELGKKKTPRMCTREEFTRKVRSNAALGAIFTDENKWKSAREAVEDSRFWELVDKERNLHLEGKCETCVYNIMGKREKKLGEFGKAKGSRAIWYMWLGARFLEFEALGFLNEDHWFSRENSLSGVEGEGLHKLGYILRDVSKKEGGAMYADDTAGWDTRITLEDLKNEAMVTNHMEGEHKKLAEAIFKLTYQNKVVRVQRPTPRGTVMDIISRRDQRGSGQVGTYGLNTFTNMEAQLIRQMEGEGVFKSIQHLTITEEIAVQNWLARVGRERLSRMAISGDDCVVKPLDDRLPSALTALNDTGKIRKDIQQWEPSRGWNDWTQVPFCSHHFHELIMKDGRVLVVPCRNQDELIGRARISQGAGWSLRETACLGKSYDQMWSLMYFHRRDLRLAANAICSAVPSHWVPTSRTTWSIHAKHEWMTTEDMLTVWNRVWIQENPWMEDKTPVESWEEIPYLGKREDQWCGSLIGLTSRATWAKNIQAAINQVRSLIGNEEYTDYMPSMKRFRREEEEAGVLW
Sequence of ATP-dependent molecular chaperone HSP82 (C4YTQ8 whole entry): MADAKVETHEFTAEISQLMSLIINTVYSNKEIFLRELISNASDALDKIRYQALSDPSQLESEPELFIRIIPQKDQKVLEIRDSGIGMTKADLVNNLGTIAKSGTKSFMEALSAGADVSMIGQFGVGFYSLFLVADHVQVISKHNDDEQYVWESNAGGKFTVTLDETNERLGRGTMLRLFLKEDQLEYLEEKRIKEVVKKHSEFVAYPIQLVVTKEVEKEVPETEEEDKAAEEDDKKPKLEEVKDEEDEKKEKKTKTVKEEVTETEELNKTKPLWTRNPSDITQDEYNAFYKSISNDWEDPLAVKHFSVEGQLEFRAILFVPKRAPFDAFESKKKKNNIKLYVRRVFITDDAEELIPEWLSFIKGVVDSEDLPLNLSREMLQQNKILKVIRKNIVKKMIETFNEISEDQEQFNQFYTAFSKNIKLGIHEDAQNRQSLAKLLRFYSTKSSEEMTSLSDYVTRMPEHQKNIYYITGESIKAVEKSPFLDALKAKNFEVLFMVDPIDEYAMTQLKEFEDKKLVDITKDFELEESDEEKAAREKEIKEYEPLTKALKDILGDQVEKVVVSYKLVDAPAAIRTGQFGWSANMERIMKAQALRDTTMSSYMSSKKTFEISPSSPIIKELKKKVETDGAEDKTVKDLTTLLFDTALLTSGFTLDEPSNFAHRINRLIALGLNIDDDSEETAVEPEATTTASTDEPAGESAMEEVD

Q: What does the source list for CCC1CCCCN1CC(=O)c1ccc(OC(F)F)cc1 (stereo unspecified)?
A: EC50 (Beta-galactosidase [1]): > 40 µM (inactive); IC50 [2]: > 40 µM (not active)

Q: Which AC50 (Cytochrome P450 3A4) does the source give for CCC(=O)/C=C/C1C(C)=CCCC1(C)C (stereo unspecified) here?
A: The AC50 was 31.6 µM (inconclusive).

Q: What about the AC50 [3] of the same molecule?
A: The AC50 was 39.8 µM (inconclusive).

Q: Which results are given for COc1ccc(-[n+]2cc(-c3ccc(C)cc3)n3c2SCC3)cc1?
A: EC50 [4]: > 150 µM (inactive); EC50 [5]: 1.17 µM (active); EC50 [6]: 0.318 µM (active); EC50 [7]: > 180 µM (inactive); EC50 [8]: > 60 µM (not active); IC50 [9]: > 80 µM (inactive); AC50 [10]: 2.91 µM (active); AC50 (INS1): 1.12 µM (active); EC50 [11]: > 150 µM (inactive); IC50 [12]: 7.65 µM (active)

Q: With O=C(NC1=CC(=O)c2ccccc2C1=O)c1ccccc1 as the molecule, how does the IC50 [13] read?
A: The IC50 was 35.7 µM (inactive).

Q: And the IC50 [14]?
A: Its IC50 is > 66.6 µM (inactive).

Q: What about the IC50 (Beta-galactosidase [15]) of the same molecule?
A: The IC50 was > 66.6 µM (inactive).

Q: And the IC50 (Hexokinase HKDC1)?
A: Its IC50 is 3.09 µM (active).

Q: And the CC50 (Vero)?
A: Its CC50 is 15.2 µM (active).

Q: And the IC50 (Genome polyprotein)?
A: Its IC50 is 18.5 µM (active).

Q: And the EC50 [16]?
A: The EC50 was 34.1 µM (inactive).

Q: And the IC50 [17]?
A: The IC50 was 2.06 µM (active).

Q: What about the AC50 (Paired box protein Pax-8) of the same molecule?
A: Its AC50 is 4.43 µM (active).

Q: What about the IC50 [18] of the same molecule?
A: Its IC50 is 11.7 µM (inactive).

Q: And the AC50 [19]?
A: The AC50 was 24.2 µM (active).

Q: And the CC50 [20]?
A: The CC50 was 2.65 µM (active).
